The results in this text go back to patent US20220009914A1, “Analogs of Nitrofuran Antibiotics to Combat Resistance” (The Trustees of Indiana University, priority 2020, published 2022).

SMILES strings stand for the structures. Like-named read-outs stand apart in the source and are kept apart here.

Test [1] has as its system Staphylococcus aureus strain Seattle 1945 (ATCC #25923). Kind of test: bacterial proliferation assay, S. aureus. The test is classed as cell-based. The settings on record: Staphylococcus aureus, ATCC25923; read-out: Bacterial Proliferation EC50 S. aureus. How it is done:
(§1) All compounds were evaluated for inhibiting the proliferation of E. coli and each of the ESKAPE bacteria. Results presented represent the averages of EC50 values obtained from at least four replicates. Evaluating compounds for inhibition of bacterial cell proliferation.
(§2) Growth Media: E. coli were grown with LB medium and all ESKAPE bacteria were grown in Brain Heart Infusion (BHI) medium (Becton, Dickinson and Company), with all liquid cultures supplemented with 25 mg/L Ca^2+ and 12.5 mg/L Mg^2+ to mimic physiological free concentrations of these cations. A 10 mg/mL Ca^2+ stock solution was prepared by dissolving 1.84 g of CaCl2.2H2O in 50 mL of deionized water, and a 10 mg/mL Mg^2+ stock solution was prepared by dissolving 4.18 g of MgCl2.6H2O in 50 mL deionized water—filter sterilized using 0.2 μm cellulose-acetate filters. 2.5 mL of the sterile 10 mg/mL Ca^2+ stock and 1.25 mL of the sterile 10 mg/mL Mg^2+ stock solutions were added per 1 L of autoclaved LB or BHI media to obtain 25 mg/L Ca^2+ and 12.5 mg/L Mg^2+ ions, respectively.
(§3) General Assay Protocol: Stock bacterial cultures were streaked onto LB or BHI agar plates and grown overnight at 37° C. Fresh aliquots of cation supplemented media were inoculated with single bacterial colonies and the cultures were grown overnight at 37° C. with shaking (240 rpm). The following morning, cultures were diluted 10-fold into fresh media and grown at 37° C. until bacteria had reached mid-log phase growth (OD600˜0.4-0.6). The cultures were then diluted into fresh media to achieve final OD600 readings of 0.017. Aliquots of these diluted cultures (30 μL) were added to clear, flat-bottom 384-well polystyrene plates that were previously stamped with 0.5 μL of test compounds in 20 μL of media (yielding initial OD600=0.01 bacterial cultures). All compounds were tested in dose-response with concentration ranges during the proliferation assays from 100 μM to 46 nM (3-fold dilution series). A second set of baseline control plates were prepared analogously, but without any bacteria added, to correct for possible compound absorbance and/or precipitation. […] Plates were then read at 600 nm using a Molecular Devices SpectraMax Plus384 microplate reader. […] Results presented represent the averages of EC50 values obtained from at least four replicates.
(§4) Evaluating analogs for inhibiting the growth of E. coli and the ESKAPE bacteria. Analogs were initially tested for antibacterial efficacy against representative strains of antibiotic-sensitive E. coli and the ESKAPE bacteria. To determine compound efficacy, bacterial proliferation assays were carried out in liquid media culture supplemented with physiological concentrations of free calcium and magnesium cations. For these assays, bacterial cultures (OD600=0.01) were exposed to test compounds in 8-point, 3-fold dilution series (100 μM to 46 nM concentration range), in 384-well plates. After addition of compounds to cultures, the plates were sealed with Breathe-Easy gas permeable membranes and allowed to grow to mid-log phase (OD600˜0.4-0.6), whereupon final OD600 readings were taken to assess for bacterial growth and inhibition.

For test [2], the system named is Acinetobacter baumannii strain 2208 (ATCC 19606). Kind of test: bacterial proliferation assay, A. baumannii. The test is classed as cell-based. The settings on record: ATCC19606, read-out: Bacterial Proliferation EC50 A. baumannii. How it is done: as §1, §2, §3, §4
In test [3] the target is T1, E. coli GroEL (Escherichia coli, UniProt P0A6F5).
T1 construct: made in house; host or cells: NEB 5-alpha E. coli
T1 sequence (P0A6F5 2-548): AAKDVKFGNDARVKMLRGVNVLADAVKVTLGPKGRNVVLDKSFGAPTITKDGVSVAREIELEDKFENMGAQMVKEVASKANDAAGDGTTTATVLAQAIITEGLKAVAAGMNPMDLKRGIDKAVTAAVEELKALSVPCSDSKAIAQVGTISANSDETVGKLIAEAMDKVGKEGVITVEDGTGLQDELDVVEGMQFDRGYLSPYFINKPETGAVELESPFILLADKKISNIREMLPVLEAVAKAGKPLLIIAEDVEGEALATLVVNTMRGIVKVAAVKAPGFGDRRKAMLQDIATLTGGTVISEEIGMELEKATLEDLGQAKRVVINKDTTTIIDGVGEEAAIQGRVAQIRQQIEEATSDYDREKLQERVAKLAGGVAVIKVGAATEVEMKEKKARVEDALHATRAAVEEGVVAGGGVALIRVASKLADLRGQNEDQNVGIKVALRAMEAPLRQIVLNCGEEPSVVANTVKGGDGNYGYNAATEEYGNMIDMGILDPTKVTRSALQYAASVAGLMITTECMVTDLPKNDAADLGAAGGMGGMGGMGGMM
Kind of test: GroEL-mediated ATPase assay. The test is classed as biochemical. The method, then:
Evaluating compounds for inhibition in the GroEL-mediated ATPase assay. All compounds were evaluated for inhibiting E. coli GroEL-mediated ATPase activity as per our previously reported procedure although employing only GroEL in solution and not containing GroES or denatured MDH. Evaluating compounds for inhibition in the GroEL-mediated ATPase assay.
Reagent preparation: For this assay, four primary reagent solutions were prepared: 1) GroEL protein solution; 2) ATP initiation solution; 3) EDTA quench solution; 4) malachite green reporter solution. The GroEL protein solution consisted of 100 nM of GroEL in folding buffer (50 mM Tris-HCl, pH 7.4, 50 mM KCl, 10 mM MgCl2, and 1 mM DTT), which was prepared immediately prior to dispensing into the assay plates. For the ATP initiation solution, ATP solid was diluted into folding buffer to a final concentration of 2 mM. Quench solution contained 300 mM EDTA (pH 8.0). The malachite green reporter solution contained 0.034% w/v malachite green, 1.04% w/v ammonium molybdate, 1% Tween-20, and 1 M HCl dissolved in H2O.
Assay Protocol: First, 10 μL aliquots of the GroEL protein solution were dispensed into clear, flat-bottom 384-well polystyrene plates. […] After incubating for 45 minutes at 37° C., 10 μL of the EDTA quench solution was added to quench the reaction cycle. Then, 60 μL of the malachite green reporter solution was added and the plates were incubated at room temperature for 10 min. The absorbance of the malachite green-phosphate complex was measured at 600 nm using a Molecular Devices SpectraMax Plus384 microplate reader. A second set of baseline control plates were prepared analogously, but without GroEL protein solution, to correct for possible interference from compound absorbance or turbidity. […] Results presented represent the averages of IC50 values obtained from at least four replicates.
Evaluating analogs for inhibiting GroEL-mediated ATPase activity. […] Thus, we further tested analogs in a well-established GroEL ATPase assay that employed malachite green to monitor inorganic phosphate liberated as GroEL hydrolyzed ATP. Briefly, a solution of GroEL was incubated with test compounds (8-point, 3-fold dilution series) and the assay was initiated by addition of ATP. After incubating for 45 minutes, the ATPase reaction was quenched by the addition of EDTA. Malachite green was then added to the assay to bind and detect free phosphates in solution (absorbance detection at k=600 nm). If analogs inhibited ATPase activity, then there would be no free phosphates for malachite green to bind, leading to minimal absorbance at 600 nm.

The test system of test [4] is Klebsiella pneumoniae strain NCTC 9633 (ATCC #13883). Description: bacterial proliferation assay, K. pneumoniae. The test is classed as cell-based. Particulars: for EC50: Klebsiella pneumoniae, read-out: Bacterial Proliferation EC50 K. pneumoniae. The method, then: as §1, §2, §3, §4

What is called IC50 is the concentration that inhibits the measured activity by half. Consider `COc1ccc(C(=O)N/N=C/c2cccc3ncccc23)cc1` [Compound 31, 4-methoxy-N′-(quinolin-5-ylmethylene)benzohydrazide], for which the EC50 in test [1], in test [2] and in test [4] was above 100 µM each time. For the same molecule, the IC50 in test [3] was above 250 µM.

As to `CN(C)c1ccc(C(=O)N/N=C/c2ccc([N+](=O)[O-])o2)cc1` [Compound 21, 4-(dimethylamino)-N′-((5-nitrofuran-2-yl)methylene)benzohydrazide], the figures for the EC50 in test [1], in test [2] and in test [4] were 34 µM, above 100 µM and above 100 µM, respectively. The IC50 in test [3] is above 250 µM.

Turning to `O=C(N/N=C/c1ccc([N+](=O)[O-])o1)c1cccs1` [Compound 16, N′-((5-nitrofuran-2-yl)methylene)thiophene-2-carbohydrazide], the EC50 is 7.1 µM in test [1], 82 µM in test [2] and 16 µM in test [4]. Moreover, the IC50 in test [3] (GroEL only, no GroES or dMDH, read-out: GroEL ATPase IC50) was above 250 µM. The “inhibition of K. pneumoniae in words” value in test [4] is “moderate inhibitors”.

As for `O=C(N/N=C/c1ccc([N+](=O)[O-])o1)c1ccccc1` [Compound 18, N′-((5-nitrofuran-2-yl)methylene)benzohydrazide], the EC50 in test [1] was 10 µM; in test [2] it was above 100 µM; in test [4] it was 36 µM. The same molecule registered an IC50 in test [3] above 250 µM.

On to `O=C(N/N=C/c1ccc([N+](=O)[O-])o1)c1ccncc1` [Compound 19, N′-((5-nitrofuran-2-yl)methylene)isonicotinohydrazide], for which the EC50 was determined as 9.5 µM in test [1], 54 µM in test [2] and 42 µM in test [4]. The molecule also showed an IC50 in test [3] above 250 µM.

With `CCN(CC)S(=O)(=O)c1cccc(C(=O)N/N=C/c2ccc([N+](=O)[O-])o2)c1` [Compound 25, N,N-diethyl-3-(2-((5-nitrofuran-2-yl)methylene)hydrazine-1-carbonyl)benzenesulfonamide], the EC50 was 9.6 µM in test [1], above 100 µM in test [2] and above 100 µM in test [4]. The molecule also yielded an IC50 in test [3] above 250 µM.

As to `O=C(N/N=C/c1ccc(O)c2ncccc12)c1ccc(Cl)s1` [Compound 4, 5-chloro-N′-((8-hydroxyquinolin-5-yl)methylene)thiophene-2-carbohydrazide], the EC50 in test [1] was 84 µM; in test [2], above 100 µM; in test [4], above 100 µM. The same molecule came in with an IC50 in test [3] above 250 µM.

For the molecule `O=C(N/N=C/c1ccc([N+](=O)[O-])o1)c1ccc(O)cc1` [Nifuroxazide, reference compound], the results for the EC50 in test [1], in test [2] and in test [4] were 16 µM, above 100 µM and 37 µM, respectively. Moreover, the IC50 in test [3] is above 250 µM.

For `O=C(N/N=C/c1ccc(O)c2ncccc12)c1ccncc1` [Compound 6, N′-((8-hydroxyquinolin-5-yl)methylene)isonicotinohydrazide], the EC50 in test [1], in test [2] and in test [4] was above 100 µM each time. This molecule gave an IC50 in test [3] above 250 µM.

On to `O=C(N/N=C/c1ccc(O)c2ncccc12)c1cccc(Oc2ccccc2)c1` [Compound 11, N′-((8-hydroxyquinolin-5-yl)methylene)-3-phenoxybenzohydrazide], for which the EC50 in test [1], in test [2] and in test [4] was above 100 µM each time. Moreover, the IC50 in test [3] is above 250 µM.

Consider `COc1ccc(C(=O)N/N=C/c2ccc(O)c3ccccc23)cc1` [Compound 29, N′-((4-hydroxynaphthalen-1-yl)methylene)-4-methoxybenzohydrazide], for which the EC50 in test [1], in test [2] and in test [4] was above 100 µM throughout. The molecule also displayed an IC50 in test [3] above 250 µM.

As to `O=C(N/N=C/c1ccc(O)c2ncccc12)c1cccc2ccccc12` [Compound 9, N′-((8-hydroxyquinolin-5-yl)methylene)-1-naphthohydrazide], the EC50 is 56 µM in test [1], above 100 µM in test [2] and above 100 µM in test [4]. This molecule also registered an IC50 in test [3] above 250 µM.

Take `COc1ccc(C(=O)N/N=C/c2ccco2)cc1` [Compound 39, N′-(furan-2-ylmethylene)-4-methoxybenzohydrazide]: the EC50 in test [1], in test [2] and in test [4] was above 100 µM each time. This molecule also yielded an IC50 in test [3] above 250 µM.

In the case of `CN(C)c1ccc(C(=O)N/N=C/c2ccc(O)c3ncccc23)cc1` [Compound 8, 4-(dimethylamino)-N′-((8-hydroxyquinolin-5-yl)methylene)benzohydrazide], the EC50 in test [1] is 99 µM; in test [2], above 100 µM; in test [4], above 100 µM. Further, in test [3], the IC50 is above 250 µM.

Take `O=C(N/N=C/c1ccccc1)c1ccccc1` [Compound 38, N′-benzylidenebenzohydrazide]: the EC50 in test [1], in test [2] and in test [4] was above 100 µM throughout. In test [3], this molecule came in with an IC50 above 250 µM.

With `O=C(N/N=C/c1ccc(O)c2ncccc12)c1cccs1` [Compound 3, N′-((8-hydroxyquinolin-5-yl)methylene)thiophene-2-carbohydrazide], the EC50 came out at 63 µM in test [1], 74 µM in test [2] and 99 µM in test [4]. The molecule further yielded an IC50 in test [3] above 250 µM.

Consider `CCOc1ccc(S(=O)(=O)Nc2ccc(C(=O)N/N=C/c3ccc([N+](=O)[O-])o3)cc2)cc1` [Compound 28, 4-ethoxy-N-(4-(2-((5-nitrofuran-2-yl)methylene)hydrazine-1-carbonyl)phenyl)benzenesulfonamide], for which the EC50 in test [1], in test [2] and in test [4] was above 100 µM in each case. Moreover, the IC50 in test [3] was above 250 µM.

On to `O=C(N/N=C/c1ccc([N+](=O)[O-])o1)c1cccc(Oc2ccccc2)c1` [Compound 24, N′-((5-nitrofuran-2-yl)methylene)-3-phenoxybenzohydrazide], for which the EC50 in test [1] was 3.5 µM; in test [2], above 100 µM; in test [4], above 100 µM. This molecule also came in with an IC50 in test [3] above 250 µM.
